US20230069963A1, “PYRAZOLO[1,5-A]PYRIMIDINE MACROCYCLIC COMPOUND” (priority 2018, published 2023)
Counter-ions that a name gives are not always drawn.

Test system: RSV ATCC VR-1540 (A2)
Assay: microbe, parasite or virus in culture
Format: cell-based
Conditions: Hep2 cells, incubated for 4 days, CPE detected with XTT assay (absorbance 450 nm); read-out: EC50 (nmol/L) against RSV A2 strain

Question: How did the EC50 turn out when “(18aS)-2-fluoro-13-(cis-3-hydroxycyclobutyl)-11-methyl-8,9,10,11,19,20,21,22-octahydro-l 8aH,24H-18,15-(metheno)pyrido[2,1-l]pyrimido[6,1-h][1,4,7,9,10,13]benzoxapentaazacyclohexadecine-7,24(6H)-dione [Example 109]” was run?
Answer: 1.14 nmol/L

Question: How did the EC50 turn out when “(18aS)-13-(azetidin-1-yl)-2-fluoro-7-(hydroxymethyl)-11-methyl-6,7,8,9,10,11,19,20,21,22-decahydro-18aH,24H-18,15-(metheno)pyrido[2,1-l]pyrimido[6,1-h][1,4,7,9,10,13]benzoxapentaazacyclohexadecin-24-one [Example 146]” was run?
Answer: 20.8 nmol/L

Same assay, conditions: human respiratory syncytial virus, HEp-2, 96 h; Hep2 cells, incubated for 4 days, CPE detected with XTT assay (absorbance 450 nm); read-out: EC50 (nmol/L) against RSV A2 strain

Question: How did the EC50 turn out when CC[C@H]1c2cc3nc(NCC(C)(C)N)c(C)c(n3n2)N(C)CCCCCOc2ccccc2C(=O)N1C [Example 234, (18S)-3-[(2-amino-2-methylpropyl)amino]-18-ethyl-4,5,17-trimethyl-5,6,7,8,9,10,17,18-octahydro-16H-19,1-(metheno)pyrimido[6,1-h][1,7,9,10,13]benzoxatetraazacyclohexadecin-16-one] was run?
Answer: 6.77 nmol/L

Question: With CC[C@H]1c2cc3nc(N4CC[C@H](N)C4)cc(n3n2)N(C)CCCOc2ccc(C)cc2C(=O)N1C [Example 238, (16S)-3-[(3S)-3-aminopyrrolidin-1-yl]-16-ethyl-5,12,15-trimethyl-5,6,7,8,15,16-hexahydro-14H-17,1-(metheno)pyrimido[6,1-f][1,5,7,8,11]benzoxatetraazacyclotetradecin-14-one] as the compound, how does the EC50 read?
Answer: 28 nmol/L

Question: Which EC50 does the source give for Cc1ccc2c(c1)C(=O)N1CCCC[C@H]1c1cc3nc(NCCN)cc(n3n1)N(C)CCCCO2 [Example 245, (23aS)-18-[(2-aminoethyl)amino]-8,16-dimethyl-1,3,4,13,14,15,16,23a-octahydro-2H,6H,12H-23,20-(metheno)pyrido[2,1-k]pyrimido[6,1-g][1,6,8,9,12]benzoxatetraazacyclopentadecin-6-one hydrochloride] here?
Answer: 4.71 nmol/L

Question: With CN1CCCCOc2cccc(F)c2C(=O)N2CCCCC2c2cc3nc(N4CCC(N)C4)cc1n3n2 [Example 249, (23aS)-18-[(3S)-3-aminopyrrolidin-1-yl]-7-fluoro-16-methyl-1,3,4,13,14,15,16,23a-octahydro-2H,6H,12H-23,20-(metheno)pyrido[2,1-k]pyrimido[6,1-g][1,6,8,9,12]benzoxatectraazacyclopentadecin-6-one] as the compound, how does the EC50 read?
Answer: 2.7 nmol/L

Question: For CN1CCCCOc2ccc(Cl)cc2C(=O)N2CCCCC2c2cc3nc(N4CC[C@H](N)C4)cc1n3n2 (stereo partly drawn) [Example 254, (23aS)-18-[(3S)-3-aminopyrrolidin-1-yl]-8-chloro-16-methyl-1,3,4,13,14,15,16,23a-octahydro-2H,6H,12H-23,20-(metheno)pyrido[2,1-k]pyrimido[6,1-g][1,6,8,9,12]benzoxatetraazacyclopentadecin-6-one], which EC50 is on record?
Answer: 3.28 nmol/L

Question: How did the EC50 turn out when CN1CCCCCc2ccc(F)cc2C(=O)N2CCCC[C@H]2c2cc3nc(N4CCC4)cc1n3n2 [Example 279, (23aS)-18-(azetidin-1-yl)-8-fluoro-16-methyl-1,3,4,11,12,13,14,15,16,23a-decahydro-2H,6H-23,20-(metheno)pyrido[1,2-b]pyrimido[1,6-f][2,5,6,8]benzotetraazacyclopentadecin-6-one] was run?
Answer: 14.5 nmol/L

Question: How did the EC50 turn out when Cc1c(N2CCC(N)C2)nc2cc3nn2c1NCCCCOc1ccc(Cl)cc1C(=O)N1CCCCC31 [Example 283, (23aS)-18-[(3S)-3-aminopyrrolidin-1-yl]-8-chloro-17-methyl-1,3,4,13,14,15,16,23a-octahydro-2H,6H,12H-23,20-(metheno)pyrido[2,1-k]pyrimido[6,1-g][1,6,8,9,12]benzoxatetraazacyclopentadecin-6-one] was run?
Answer: 6.28 nmol/L

Question: For Cc1c(N2CCC2)nc2cc3nn2c1NCCCCOc1ccc(Cl)cc1C(=O)N1CCCC[C@@H]31 [Example 284, (23aS)-18-(azetidin-1-yl)-8-chloro-17-methyl-1,3,4,13,14,15,16,23a-octahydro-2H,6H,12H-23,20-(metheno)pyrido[2,1-k]pyrimido[6,1-g][1,6,8,9,12]benzoxatetraazacyclopentadecin-6-one], which EC50 is on record?
Answer: 22.2 nmol/L

Question: Which EC50 does the source give for Cc1c(NCCN)nc2cc3nn2c1NCCCCOc1ccc(Cl)cc1C(=O)N1CCCC[C@@H]31 [Example 285, (23aS)-18-[(2-aminoethyl)amino]-8-chloro-17-methyl-1,3,4,13,14,15,16,23a-octahydro-2H,6 H,12H-23,20-(metheno)pyrido[2,1-k]pyrimido[6,1-g][1,6,8,9,12]benzoxatetraazacyclopentadecin-6-one hydrochloride] here?
Answer: 11.9 nmol/L

Question: With Cc1c(N2CCC(N)C2)nc2cc3nn2c1N(C)CCCCOc1ccc(Cl)cc1C(=O)N1CCCCC31 [Example 286, (23aS)-18-[(3S)-3-aminopyrrolidin-1-yl]-8-chloro-16,17-dimethyl-1,3,4,13,14,15,16,23a-octahydro-2H,6H,12H-23,20-(metheno)pyrido[2,1-k]pyrimido[6,1-g][1,6,8,9,12]benzoxatetraazacyclopentadecin-6-one] as the compound, how does the EC50 read?
Answer: 20.8 nmol/L

Question: How did the EC50 turn out when CN1CCOCCOc2ccc(Cl)cc2C(=O)N2CCCCC2c2cc3nc(N4CCC(N)C4)cc1n3n2 [Example 297, (18aS)-13-[(3S)-3-aminopyrrolidin-1-yl]-2-chloro-11-methyl-6,7,10,11,19,20,21,22-octahydro-9H,18aH,24H-18,15-(metheno)pyrido[2,1-l]pyrimido[6,1-h][1,4,7,9,10,13]benzodioxatetraazacyclohexadecin-24-one] was run?
Answer: 8.74 nmol/L

Question: How did the EC50 turn out when Cc1c(N2CCC(N)C2)nc2cc3nn2c1NCCOCCOc1ccc(Cl)cc1C(=O)N1CCCCC31 [Example 299, (18aS)-13-[(3S)-3-aminopyrrolidin-1-yl]-2-chloro-12-methyl-6,7,10,11,19,20,21,22-octahydro-9H,18aH,24H-18,15-(metheno)pyrido[2,1-l]pyrimido[6,1-h][1,4,7,9,10,13]benzodioxatetraazacyclohexadecin-24-one] was run?
Answer: 9.69 nmol/L

Question: For CCc1ccc2c(c1)C(=O)N(C)[C@@H](CC)c1cc3nc(N4CC[C@H](N)C4)cc(n3n1)N(C)CCCS(=O)(=O)N2 [Example 303, (17S)-3-[(3S)-3-aminopyrrolidin-1-yl]-13,17-diethyl-5,16-dimethyl-7,8,16,17-tetrahydro-5H-18,1-(metheno)-9λ^6-pyrimido[6,1-g][2,1,6,8,9,12]benzothiapentaazacyclopentadecine-9,9,15 (6H,10H)-trione], which EC50 is on record?
Answer: 10.5 nmol/L

Question: For CCN1CCCS(=O)(=O)Nc2ccc(F)cc2C(=O)N2CCCC[C@H]2c2cc3nc(N4CCC4)cc1n3n2 [Example 318, (23aS)-18-(azetidin-1-yl)-16-ethyl-8-fluoro-1,3,4,13,14,15,16,23a-octahydro-2H,6H-23,20-(metheno)-12λ^6-pyrido[2,1-k]pyrimido[6,1-g][2,1,6,8,9,12]benzothiapentaazacyclopentadecine-6,12,12(11H)-trione], which EC50 is on record?
Answer: 22.7 nmol/L

Question: With Cc1c(NCCN)nc2cc3nn2c1N(C)CCCS(=O)(=O)Nc1ccc(Cl)cc1C(=O)N1CCCC[C@@H]31 [Example 327, (23aS)-18-[(2-aminoethyl)amino]-8-chloro-16,17-dimethyl-1,3,4,13,14,15,16,23a-octahydro-2H,6H-23,20-(metheno)-12λ^6-pyrido[2,1-k]pyrimido[6,1-g][2,1,6,8,9,12]benzothiapentaazacyclopentadecine-6,12,12(11H)-trione] as the compound, how does the EC50 read?
Answer: 1.72 nmol/L

Question: How did the EC50 turn out when Cc1nnc2n1CCN(C)c1cc(N3CC(N)C3)nc3cc(nn13)[C@@H]1CCCCN1C(=O)c1cc(Cl)ccc1OC2 [Example 328, (20aS)-15-(3-aminoazetidin-1-yl)-2-chloro-9,13-dimethyl-12,13,21,22,23,24-hexahydro-6H, 11H,20aH,26H-20,17-(metheno)pyrido[2,1-l]pyrimido[6,1-h][1,2,4]triazolo[3,4-c][1,4,7,9,10,13]benzoxapentaazacyclohexadecin-26-one] was run?
Answer: 9.48 nmol/L

Question: How did the EC50 turn out when Cc1nnc2n1CCN(C)c1cc(N3CCC3)nc3cc(nn13)[C@@H]1CCCCN1C(=O)c1cc(Cl)ccc1OC2 [Example 329, (20aS)-15-(azetidin-1-yl)-2-chloro-9,13-dimethyl-12,13,21,22,23,24-hexahydro-6H,11H,20aH,26H-20,17-(metheno)pyrido[2,1-l]pyrimido[6,1-h][1,2,4]triazolo[3,4-c][1,4,7,9,10,13]benzoxapentaazacyclohexadecin-26-one] was run?
Answer: 1.61 nmol/L

Question: Which EC50 does the source give for CN1CCc2cn(nn2)Cc2ccc(Cl)cc2C(=O)N2CCCC[C@H]2c2cc3nc(N4CC(N)C4)cc1n3n2 [Example 330, (19aS)-14-(3-aminoazetidin-1-yl)-2-chloro-12-methyl-11,12,20,21,22,23-hexahydro-10H,19aH-6,9:19,16-di(metheno)pyrido[2,1-m]pyrimido[6,1-i][2,3,4,8,10,11,14]benzoheptaazacycloheptadecin-25(5H)-one] here?
Answer: 19.8 nmol/L

Question: Which EC50 does the source give for CN1CCCC(=O)NCC(C)(c2ccc(F)cc2)C(=O)N2CCCC[C@H]2c2cc3nc(N4CC(N)C4)cc1n3n2 (stereo partly drawn) [Example 371, (18aS)-3-(3-aminoazetidin-1-yl)-12-(4-fluorophenyl)-5,12-dimethyl-7,8,11,12,16,17,18,18a-octahydro-5H,15H-19,1-(metheno)pyrido[1,2-m]pyrimido[1,6-b][1,2,4,9,13]pentaazacyclopentadecine-9,13(6H,10H)-dione] here?
Answer: 12.8 nmol/L

Question: CN1CCCCS(=O)(=O)NC(C)(c2ccc(F)cc2)C(=O)N2CCCC[C@H]2c2cc3nc(N4CC(O)C4)cc1n3n2 (stereo partly drawn) [Example 377, (18aS)-12-(4-fluorophenyl)-3-(3-hydroxyazetidin-1-yl)-5,12-dimethyl-6,7,8,9,11,12,16,17,18,18a-decahydro-5H,15H-19,1-(metheno)-10λ^6-pyrido[1,2-e]pyrimido[1,6-i][1,2,5,8,9,11]thiapentaazacyclopentadecine-10,10,13-trione] was tested. Which EC50 did it give?
Answer: 22.7 nmol/L

Question: How did the EC50 turn out when CN1CCCCOCC(C)(c2cccnc2)C(=O)N2CCCCC2c2cc3nc(N4CC(N)C4)cc1n3n2 [Example 380, (18aS)-3-(3-aminoazetidin-1-yl)-5,12-dimethyl-12-(pyridin-3-yl)-6,7,8,9,11,12,16,17,18,18a-decahydro-5H,13H,15H-19,1-(metheno)pyrido[,2-e]pyrimido[1,6-i][1,5,8,9,11]oxatetraazacyclopentadecin-13-one] was run?
Answer: 8.77 nmol/L
